According to PubChem BioAssay (NCI):
Where “and” joins values, the source holds several entries; their conditions need not be identical. Identical values can stand only once.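 Each compound was tested at five concentrations against cells in 96-well plates for 48 hours. Here, GI50 denotes the concentration required for 50% inhibition of growth. The concentration for full growth arrest is given as TGI.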

What was measured:
Test in all cases: NCI anticancer screen, dose series, 48 h
[1] = system: A498 renal
[2] = system: COLO 205 colon
[3] = system: LOX IMVI melanoma
[4] = system: NCI-H460 lung
[5] = system: PC-3 prostate
[6] = system: SF-539 CNS
[7] = system: SK-MEL-28 melanoma
[8] = system: SK-OV-3 ovarian
[9] = system: T-47D breast
[10] = system: MOLT-4 leukemia

With CCCCCCCCCCCCOC1C(C(COC2OC(C(O)CO)C3OC(C)(C)OC23)OC(=O)Nc2ccc([N+](=O)[O-])cc2)OC2OC(C)(C)OC21 (centres undefined) the GI50 [1] was 2.63 µM, the TGI [1] was 6.09 µM and the GI50 [2] was 7.28 µM. The TGI [2] was 23.9 µM, the GI50 [3] was 2 µM and the TGI [3] was 3.79 µM. The GI50 [4] was 3.74 µM, the TGI [4] was 13.5 µM and the GI50 [5] was 2.42 µM. The TGI [5] was 5.63 µM, the GI50 [6] was 4.15 µM and the TGI [6] was 14.7 µM. The GI50 [7] was 9.84 µM, the TGI [7] was 22.7 µM and the GI50 [8] was 15.9 µM. For the same compound, the TGI [8] was 30.8 µM, the GI50 [9] was 4.71 µM and the TGI [9] was 16.9 µM.

Work on CC1SC(c2cccc(Oc3ccccc3)c2)N(CCc2cccs2)C1=O (centres undefined) yielded a GI50 [1] of 1.21 µM, a TGI [1] of 2.46 µM and a GI50 [2] of 1.5 µM. It also gave a TGI [2] of 3.05 µM, a GI50 [3] of 0.883 µM and a TGI [3] of 2.11 µM. The GI50 [10] was 0.77 µM, the TGI [10] was 4.97 µM and the GI50 [4] was 1.09 µM. For the same compound, the TGI [4] was 2.49 µM, the GI50 [5] was 0.595 µM and the TGI [5] was 3.37 µM. It also gave a GI50 [6] of 1.5 µM, a TGI [6] of 3.11 µM and a GI50 [7] of 1.42 µM. For the same compound, the TGI [7] was 2.78 µM, the GI50 [8] was 1.92 µM and the TGI [8] was 5.32 µM. The GI50 [9] was 0.594 µM and the TGI [9] was 5.11 µM.

Cn1c(N)c(N=Nc2ccc(S(N)(=O)=O)cc2)c(=O)n(C)c1=O showed a TGI [1] greater than 100 µM, a TGI [2] greater than 100 µM and a TGI [3] greater than 100 µM. It also gave a TGI [10] greater than 100 µM, a TGI [4] greater than 100 µM and a TGI [5] greater than 100 µM. The TGI [6] was greater than 100 µM, the TGI [7] was greater than 100 µM and the TGI [8] was greater than 100 µM. The TGI [9] was greater than 100 µM.

Work on Cc1nn(-c2ccccc2)c2ncc3c(c12)C(=O)N(Cc1ccccc1)C3=O yielded a GI50 [1] of 3.51 µM, a TGI [1] of 21.8 µM and a GI50 [2] of 4.99 µM. For the same compound, the TGI [2] was greater than 100 µM, the GI50 [3] was 4.58 µM and the TGI [3] was greater than 100 µM. It also gave a GI50 [10] of 6.77 µM, a TGI [10] of 40.3 µM and a GI50 [4] of 2.55 µM. The TGI [4] was greater than 100 µM, the GI50 [5] was 10.1 µM and the TGI [5] was greater than 100 µM. The GI50 [6] was 12.2 µM, the TGI [6] was 56.7 µM and the GI50 [7] was greater than 100 µM. It also gave a TGI [7] greater than 100 µM, a GI50 [8] of 5.73 µM and a TGI [8] greater than 100 µM. The GI50 [9] was 4.86 µM and the TGI [9] was 20.7 µM.

Compound CN1CCN(Cc2ccc(NC(=O)c3cncc(C#Cc4c(N)ncc5ccc(F)cc45)c3)cc2C(F)(F)F)CC1 has a GI50 [1] of 0.299 µM, a TGI [1] of 1.26 µM and a GI50 [2] of 0.206 µM. For the same compound, the TGI [2] was 3.32 µM, the GI50 [3] was 0.303 µM and the TGI [3] was 1.05 µM. It also gave a GI50 [10] of 0.234 µM, a TGI [10] of 3.03 µM and a GI50 [4] of 0.647 µM. The TGI [4] was 3.33 µM, the GI50 [5] was 1.23 µM and the TGI [5] was 3.78 µM. For the same compound, the GI50 [6] was 0.628 µM, the TGI [6] was 2.65 µM and the GI50 [7] was 0.621 µM. It also gave a TGI [7] of 1.37 µM, a GI50 [8] of 5.96 µM and a TGI [8] of 13.6 µM. For the same compound, the GI50 [9] was 23.8 µM and the TGI [9] was 50 µM.

O=C1c2cccc3cc4ccccc4c(c23)C(=O)N1CCCNCCNCCCN1C(=O)c2cccc3cc4ccccc4c(c23)C1=O showed a TGI [1] of 1.91 µM, a TGI [10] of 1.36 µM and a TGI [4] of 0.161 µM. The TGI [5] was 1.43 µM, the TGI [6] was 1.45 µM and the TGI [8] was 1.65 µM. The TGI [9] was 2.54 µM.

For COc1ccc(-c2nccn2-c2cc(OC)c(OC)c(OC)c2)cc1, the GI50 [1] was 0.909 µM, the GI50 [2] was 0.598 µM and the TGI [2] was 7.29 µM. The GI50 [3] was 8.76 µM, the TGI [3] was greater than 100 µM and the GI50 [10] was 18.3 µM. It also gave a TGI [10] greater than 100 µM, a GI50 [4] of 1.6 µM and a TGI [4] greater than 100 µM. It also gave a GI50 [5] of 1.81 µM, a TGI [5] greater than 100 µM and a GI50 [6] of 5.78 µM. For the same compound, the TGI [6] was 24.4 µM, the GI50 [7] was 20.6 µM and the TGI [7] was greater than 100 µM. The GI50 [8] was 6.13 µM, the TGI [8] was greater than 25.6 µM and the GI50 [9] was 9.55 µM. The TGI [9] was greater than 100 µM.

In the case of C[CH2][Ge]1([CH2]C)[CH2]CC2(CCN(CCCN(C)C)C2)C[CH2]1, the GI50 [1] is reported as 1.64 µM and 1.05 µM, the TGI [1] is reported as 3.26 µM and 1.68 µM and the GI50 [2] is reported as 0.39 µM and 1.29 µM. The TGI [2] was 1.12 µM and 1.77 µM, the TGI [10] was 2.91 µM and 25.7 µM and the GI50 [4] was 1.44 µM and 2.53 µM. For the same compound, the TGI [4] was 3.05 µM and 4.6 µM, the GI50 [5] was 1.8 µM and the TGI [5] was 4.44 µM and 1.34 µM. The GI50 [6] was 1.78 µM and 1.71 µM, the TGI [6] was 3.54 µM and 3.34 µM and the GI50 [7] was 1.34 µM and 1.79 µM. The TGI [7] was 2.71 µM and 3.27 µM, the GI50 [8] was 2.64 µM and 3.59 µM and the TGI [8] was 6.11 µM and 9.62 µM. The GI50 [9] was 1.65 µM and the TGI [9] was 3.25 µM.

Work on COc1ccc(N2CCN(CC(=O)N3CCN(c4nnc(-c5ccc(Cl)cc5)c(-c5ccc(Cl)cc5)n4)CC3)CC2)cc1 yielded a GI50 [1] of 13.4 µM, a TGI [1] greater than 100 µM and a GI50 [2] of 6.6 µM. For the same compound, the TGI [2] was greater than 100 µM, the GI50 [3] was 7.76 µM and the TGI [3] was greater than 100 µM. For the same compound, the GI50 [10] was 3.1 µM, the TGI [10] was greater than 100 µM and the GI50 [4] was 7 µM. It also gave a TGI [4] greater than 100 µM, a GI50 [5] of 6.56 µM and a TGI [5] greater than 100 µM. For the same compound, the GI50 [6] was 3.66 µM, the TGI [6] was 17.3 µM and the GI50 [7] was 96.8 µM. The TGI [7] was greater than 100 µM, the GI50 [8] was greater than 100 µM and the TGI [8] was greater than 100 µM. For the same compound, the GI50 [9] was 3.64 µM and the TGI [9] was greater than 100 µM.

Compound CCCC1C2=C(C(=O)OC2=O)C2C(CC)CC3=C(C(=O)OC3=O)C12 (centres undefined) has a TGI [1] greater than 100 µM, a TGI [2] greater than 100 µM and a TGI [3] greater than 100 µM. The TGI [10] was greater than 100 µM, the TGI [4] was greater than 100 µM and the TGI [5] was greater than 100 µM. It also gave a TGI [6] greater than 100 µM, a TGI [7] greater than 100 µM and a TGI [8] greater than 100 µM. It also gave a TGI [9] greater than 100 µM.

Work on CCS(=O)(=O)Nc1ccc(Oc2ccc(F)cc2F)c(-c2cn(C)c(=O)c3[nH]ccc23)c1 yielded a GI50 [1] of 0.157 µM, a TGI [1] of 4.01 µM and a GI50 [2] of less than 0.01 µM. It also gave a TGI [2] of 6.29 µM, a GI50 [3] of 0.0124 µM and a TGI [3] of 0.905 µM. The GI50 [10] was 0.408 µM, the TGI [10] was 15.6 µM and the GI50 [4] was 0.302 µM. The TGI [4] was 19.3 µM, the GI50 [5] was 0.0656 µM and the TGI [5] was 49.4 µM. It also gave a GI50 [6] of 0.0135 µM, a TGI [6] of 16.1 µM and a GI50 [7] of 1.64 µM. It also gave a TGI [7] of 21 µM, a GI50 [8] of less than 0.0109 µM and a TGI [8] of 6.2 µM. It also gave a GI50 [9] of 0.0253 µM and a TGI [9] of 30.1 µM.

CCN(CC)CCCC(C)NC(=S)N/N=C(\C)c1ccccn1 (centres undefined) showed a GI50 [1] of 2.57 µM, a TGI [1] of 97 µM and a GI50 [2] of 3.25 µM. The TGI [2] was greater than 100 µM, the GI50 [3] was 2.63 µM and the TGI [3] was greater than 100 µM. It also gave a GI50 [10] of 4.49 µM, a TGI [10] greater than 100 µM and a GI50 [4] of 2.33 µM. The TGI [4] was 15 µM, the GI50 [5] was 5.02 µM and the TGI [5] was greater than 100 µM. It also gave a GI50 [6] of 3.33 µM, a TGI [6] of 82 µM and a GI50 [7] of 16.9 µM. It also gave a TGI [7] greater than 100 µM, a GI50 [9] of 5.36 µM and a TGI [9] greater than 100 µM.

In the case of CCCCc1ccc(C(N)=O)nc1, the GI50 [1] is reported as 48.1 µM, the TGI [1] is reported as greater than 100 µM and the GI50 [2] is reported as greater than 100 µM. It also gave a TGI [2] greater than 100 µM, a GI50 [3] greater than 100 µM and a TGI [3] greater than 100 µM. For the same compound, the GI50 [10] was greater than 100 µM, the TGI [10] was greater than 100 µM and the GI50 [4] was greater than 100 µM. The TGI [4] was greater than 100 µM, the GI50 [5] was greater than 100 µM and the TGI [5] was greater than 100 µM. The GI50 [6] was greater than 100 µM, the TGI [6] was greater than 100 µM and the GI50 [7] was greater than 100 µM. For the same compound, the TGI [7] was greater than 100 µM, the GI50 [8] was greater than 100 µM and the TGI [8] was greater than 100 µM. The GI50 [9] was greater than 100 µM and the TGI [9] was greater than 100 µM.
